The source of these data is patent US20250296936A1, “SARS-COV2 MAIN PROTEASE INHIBITORS” (Gilead Sciences, Inc., priority 2024, published 2025).

The test system of the assay is SARS-CoV-2-NLuc in A549-hACE2 cells. Kind of assay: microbe, parasite or virus in culture. Format: cell-based, SARS Coronavirus 2. The settings on record: for pEC50: read-out: MPro EC50; for EC50: read-out: MPro EC50 (nM).
The mark [1] stands for this setting: Severe acute respiratory syndrome coronavirus, 48 h.

Each structure is given as a SMILES string. pEC50: −log10 of the molar value. Like-named read-outs stand apart in the source and are kept apart here. A value given as a limit tells only on which side of the number the result lay.

In the case of `COc1cc(-c2cc3c(o2)c(=O)n(-c2cncc4cccnc24)c(=O)n3CCC#N)c(Cl)cc1F` (single isomer, unassigned) [Example 65, 3-(6-(2-chloro-4-fluoro-5-methoxyphenyl)-3-(1,6-naphthyridin-8-yl)-2,4-dioxo-3,4-dihydrofuro[3,2-d]pyrimidin-1(2H)-yl)propanenitrile], the negative logarithm of the EC50 (pEC50) is 8.24. Turning to `COc1cc(-c2cc3c(o2)c(=O)n(-c2cncc4cccnc24)c(=O)n3CCC#N)c(Cl)cc1F` (single isomer, unassigned) [Example 66, 3-(6-(2-chloro-4-fluoro-5-methoxyphenyl)-3-(1,6-naphthyridin-8-yl)-2,4-dioxo-3,4-dihydrofuro[3,2-d]pyrimidin-1(2H)-yl)propanenitrile], the pEC50 is 6.95. On to `COc1cc(-c2cc3c(o2)c(=O)n(-c2cncc4ccccc24)c(=O)n3CC2(C#N)CC2)c(Cl)cc1F` [Example 47, 1-((6-(2-chloro-4-fluoro-5-methoxyphenyl)-3-(isoquinolin-4-yl)-2,4-dioxo-3,4-dihydrofuro[3,2-d]pyrimidin-1(2H)-yl)methyl)cyclopropane-1-carbonitrile], for which the pEC50 under setting [1] is 7.53. Consider `Cc1cncc(-n2c(=O)c3oc(-c4ccccc4Cl)cc3n(CCC#N)c2=O)c1` [Example 23], for which the EC50 under setting [1] stood at 24.1 nM. `COc1cc(-c2cc3c(o2)c(=O)n(-c2cncc4ccccc24)c(=O)n3CC#N)c(Cl)cc1F` [Example 37, 2-(6-(2-chloro-4-fluoro-5-methoxyphenyl)-3-(isoquinolin-4-yl)-2,4-dioxo-3,4-dihydrofuro[3,2-d]pyrimidin-1(2H)-yl)acetonitrile]: the negative logarithm of the EC50 (pEC50) under setting [1] was 7.80. In the case of `Cn1ncc2cncc(-n3c(=O)c4oc(-c5ccccc5Cl)cc4n(CC#N)c3=O)c21` [Example 38], under setting [1], the EC50 was 88 nM.

As to `COc1cc(-c2cc3c(o2)c(=O)n(-c2cnnc(C)c2)c(=O)n3CCC#N)c(Cl)cc1F` [Example 27], the EC50 under setting [1] is 5250 nM. On to `N#CCn1c(=O)n(-c2cncc3ccccc23)c(=O)c2oc(-c3ccccc3Cl)cc21` [Example 40], for which the EC50 under setting [1] came to 20.1 nM. `COc1cc(-c2cc3c(o2)c(=O)n(-c2cncc4cnn(C)c24)c(=O)n3CCC#N)c(Cl)cc1F` [Example 17]: the EC50 under setting [1] is 20.7 nM. Consider `Cn1ncc2cncc(-n3c(=O)[nH]c4cc(-c5ccc(F)cc5Cl)oc4c3=O)c21` [Example 9], for which the pEC50 under setting [1] is 6.00.

For the compound `Cn1ncc2cncc(-n3c(=O)[nH]c4cc(-c5ccccc5Cl)oc4c3=O)c21` [Example 6], the EC50 under setting [1] was found to be 174 nM. Still for that read-out and setting: the result for `COc1cc(-c2cc3c(o2)c(=O)n(-c2cncc4cnn(C)c24)c(=O)n3C)c(Cl)cc1F` [Example 30] reads 683 nM. For `COc1ccc2cncc(-n3c(=O)c4oc(-c5ccccc5Cl)cc4n(CC#N)c3=O)c2c1` [Example 41], the half-maximal effective concentration (EC50) under setting [1] was 16.6 nM.

`N#CC1(Cn2c(=O)n(-c3cncc4ccc(F)cc34)c(=O)c3oc(-c4ccccc4Cl)cc32)CC1` [Example 52]: the EC50 under setting [1] stood at 11.8 nM. The same measure, in the same setting: in the case of `O=c1[nH]c2oc(-c3ccccc3Cl)cc2c(=O)n1-c1cncc2ccccc12` [Example 14] it was 3330 nM. On to `O=c1[nH]c2cc(-c3ccccc3Cl)oc2c(=O)n1-c1cncc2c1CCCC2` [Example 5], for which the EC50 under setting [1] worked out at 212 nM. On to `Cn1c(=O)n(-c2cncc3c2CCCC3)c(=O)c2oc(-c3ccccc3Cl)cc21` [Example 34], for which the EC50 under setting [1] worked out at 960 nM. As for `COc1cc(-c2cc3c(o2)c(=O)n(-c2cncc4cnn(C)c24)c(=O)n3CC2(C#N)CC2)c(Cl)cc1F` [Example 49], the EC50 under setting [1] was determined as 12.2 nM.

As to `COc1cc(-c2cc3c(o2)c(=O)n(-c2cncc4ccccc24)c(=O)n3CCC#N)c(Cl)cc1F` (single isomer, unassigned) [Example 59, 3-[6-(2-chloro-4-fluoro-5-methoxy-phenyl)-3-(4-isoquinolyl)-2,4-dioxo-furo[3,2-d]pyrimidin-1-yl]propanenitrile], the negative-log EC50 (pEC50) was 8.33. `COc1cc(-c2cc3c(o2)c(=O)n(-c2cncc4cccnc24)c(=O)n3CCC#N)c(Cl)cc1F` [Example 57, 3-(6-(2-chloro-4-fluoro-5-methoxyphenyl)-3-(1,6-naphthyridin-8-yl)-2,4-dioxo-3,4-dihydrofuro[3,2-d]pyrimidin-1(2H)-yl)propanenitrile]: the pEC50 under setting [1] was 7.71. Consider `Cc1cncc(-n2c(=O)[nH]c3cc(-c4ccccc4Cl)oc3c2=O)c1` [Example 8], for which the EC50 under setting [1] is 137 nM. In the case of `COc1cc(-c2cc3[nH]c(=O)n(-c4cncc5ccccc45)c(=O)c3o2)c(Cl)cc1F` [Example 11, 6-(2-chloro-4-fluoro-5-methoxy-phenyl)-3-(4-isoquinolyl)-1H-furo[3,2-d]pyrimidine-2,4-dione], under setting [1], the pEC50 is 7.09. Take `Cn1ncc2cncc(-n3c(=O)c4oc(-c5ccccc5Cl)cc4n(C)c3=O)c21` [Example 29]: the EC50 under setting [1] stood at 1170 nM.

With `Cn1ncc2cncc(-n3c(=O)c4oc(-c5ccccc5Cl)cc4n(CCC#N)c3=O)c21` (single isomer, unassigned) [Example 62, 3-[6-(2-chlorophenyl)-3-(1-methylpyrazolo[4,3-c]pyridin-7-yl)-2,4-dioxo-furo[3,2-d]pyrimidin-1-yl]propanenitrile], the pEC50 is 6.63.

Regarding `Cn1ncc2cncc(-n3c(=O)c4oc(-c5ccccc5Cl)cc4n(CC4(C#N)CC4)c3=O)c21` [Example 48], the EC50 under setting [1] came out at 8.36 nM. On the same count and under the same terms, the result for `COc1cc(-c2cc3[nH]c(=O)n(-c4cccnn4)c(=O)c3o2)c(Cl)cc1F` [Example 15] reads over 10000 nM. On to `N#CCCn1c(=O)n(-c2cncc3ccccc23)c(=O)c2oc(-c3ccccc3Cl)cc21` [Example 19], for which the EC50 under setting [1] is 13 nM.

Take `N#CCCn1c(=O)n(-c2cncc3ccccc23)c(=O)c2oc(-c3ccc(F)cc3Cl)cc21` [Example 25]: the EC50 under setting [1] amounted to 41.7 nM. Regarding `COc1ccc(Cl)c(-c2cc3[nH]c(=O)n(-c4cncc5ccccc45)c(=O)c3o2)c1` [Example 3], the EC50 under setting [1] is 23.3 nM. `O=c1[nH]c2cc(-c3ccccc3Cl)oc2c(=O)n1-c1cncc2ccc(F)cc12` [Example 7]: under setting [1], the 50% effective concentration (EC50) amounted to 79.6 nM.

Take `COc1ccc2cncc(-n3c(=O)[nH]c4cc(-c5ccccc5Cl)oc4c3=O)c2c1` [Example 10]: the EC50 under setting [1] was 95.6 nM.

Take `N#CCn1c(=O)n(-c2cncc3c2CCCC3)c(=O)c2oc(-c3ccccc3Cl)cc21` [Example 42]: under setting [1], the EC50 is 36.7 nM. `Cc1cncc(-n2c(=O)c3oc(-c4ccccc4Cl)cc3n(CC#N)c2=O)c1` [Example 45]: the EC50 under setting [1] worked out at 52.3 nM. On to `COc1cc(-c2cc3c(o2)c(=O)n(-c2cncc4cnn(C)c24)c(=O)n3CCC#N)c(Cl)cc1F` (single isomer, unassigned) [Example 64, 3-[6-(2-chloro-4-fluoro-5-methoxy-phenyl)-3-(1-methylpyrazolo[4,3-c]pyridin-7-yl)-2,4-dioxo-furo[3,2-d]pyrimidin-1-yl]propanenitrile], for which the pEC50 was 6.95. On to `COc1cc(-c2cc3c(o2)c(=O)n(-c2cncc(C)c2)c(=O)n3CCC#N)c(Cl)cc1F` [Example 58], for which, under setting [1], the EC50 was found to be 19.9 nM. Take `O=c1[nH]c2cc(-c3ccccc3Cl)oc2c(=O)n1-c1cncc2ccccc12` [Example 4, 6-(2-chlorophenyl)-3-(4-isoquinolyl)-1H-furo[3,2-d]pyrimidine-2,4-dione]: the pEC50 under setting [1] was 6.56. As to `N#CC1(Cn2c(=O)n(-c3cncc4ccccc34)c(=O)c3oc(-c4ccc(F)cc4Cl)cc32)CC1` [Example 54], under setting [1], the EC50 amounted to 18 nM.

A word on the pEC50: it is the negative decadic logarithm of the EC50, by convention in mol/L. Usually EC50 stands for the concentration needed to bring the measured effect to its halfway point.
